One block for each compound: values may come before it. Calls of active or inactive are those of the source.
Legend:
Mu-type opioid receptor = Mu-type opioid receptor (Homo sapiens, UniProt P35372); type: functional, cell-based;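 note: U2OS cells with beta-arrestin recruitment to OPRM1 by beta-gal complementation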
[1] = molecular target: 5-hydroxytryptamine receptor 2A (Mus musculus, UniProt P35363); type: functional, cell-based;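 note: CHO-K1 cells with tagged receptor and beta-arrestin; agonist potency measured as compound-induced activation of the receptor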
[2] = A549 cell cytotoxicity, dose response, cytotoxicity control, plate reader, cherry-pick, antagonist series (AID 743412); type: functional, cell-based
[3] = LGR2 antagonists, dose response, cell-based, HEK293, CRE-luciferase reporter, cherry pick, set 2 (AID 743343); type: functional;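 note: transfected cells were stimulated with diluted bursicon conditioned medium after compound addition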
[4] = MC4R antagonists, dose response, counter-screen for LGR2 antagonist project, cell-based, plate reader, cherry pick (AID 743444); type: functional;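 note: transfected HEK 293 cells stimulated with alpha-MSH peptide; potency of inhibitors of the alpha-MSH evoked signal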
Estrogen receptor beta = Estrogen receptor beta (Homo sapiens, UniProt Q92731);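 note: recombinant ER-beta bound to coactivator SRC1 peptide in presence of estradiol agonist; inhibitors block coactivator peptide binding and lower the FRET signal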
Protein Wnt-3a = Protein Wnt-3a (Mus musculus, UniProt P27467); test: Wnt3a-driven reporter signaling inhibition, dose response, selectivity assay for Gli-SUFU antagonist project, Wnt-LIGHT cells, luminescence (AID 651570); type: functional; details: read-out: IC50_Mean;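 note: Wnt-LIGHT reporter cells stimulated with conditioned medium from Wnt3a-producing cells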
Caspase-3 = molecular target: T1, Caspase-3 (Homo sapiens, UniProt P42574); type: functional;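 note: Dose-response selectivity test against caspase-3 for candidate inhibitors of sentrin-specific proteases (SENPs)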
T1 sequence (P42574 whole entry): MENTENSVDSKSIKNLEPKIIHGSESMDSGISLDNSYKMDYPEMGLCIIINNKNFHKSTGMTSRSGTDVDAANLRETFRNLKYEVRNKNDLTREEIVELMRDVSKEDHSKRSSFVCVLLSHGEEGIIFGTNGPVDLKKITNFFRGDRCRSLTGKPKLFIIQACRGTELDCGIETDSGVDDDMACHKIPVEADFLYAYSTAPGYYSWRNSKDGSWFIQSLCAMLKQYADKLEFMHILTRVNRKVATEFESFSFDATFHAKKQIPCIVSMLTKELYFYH

Coagulation factor XII = molecular target: T2, Coagulation factor XII (Homo sapiens, UniProt P00748); type: functional;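 note: activated factor XIIa alpha cleaving a fluorogenic AMC peptide substrate; inhibitor potency from loss of enzyme activity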
T2 sequence (P00748 whole entry): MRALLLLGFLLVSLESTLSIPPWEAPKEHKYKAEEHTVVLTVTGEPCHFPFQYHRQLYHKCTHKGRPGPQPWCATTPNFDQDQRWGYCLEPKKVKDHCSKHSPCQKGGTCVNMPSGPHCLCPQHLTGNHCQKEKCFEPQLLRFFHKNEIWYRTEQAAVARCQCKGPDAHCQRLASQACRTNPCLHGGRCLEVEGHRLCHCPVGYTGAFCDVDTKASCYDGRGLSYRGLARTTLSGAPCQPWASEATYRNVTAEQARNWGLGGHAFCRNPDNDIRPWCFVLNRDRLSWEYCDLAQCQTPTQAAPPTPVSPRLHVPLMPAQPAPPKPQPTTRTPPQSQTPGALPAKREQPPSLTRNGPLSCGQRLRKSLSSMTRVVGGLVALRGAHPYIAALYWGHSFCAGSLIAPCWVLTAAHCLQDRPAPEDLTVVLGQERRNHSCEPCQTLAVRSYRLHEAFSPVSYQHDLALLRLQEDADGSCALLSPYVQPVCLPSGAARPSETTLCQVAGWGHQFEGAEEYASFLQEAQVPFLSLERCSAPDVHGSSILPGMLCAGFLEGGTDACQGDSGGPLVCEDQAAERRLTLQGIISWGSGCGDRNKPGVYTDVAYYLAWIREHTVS

[5] = molecular target: T3, Sentrin-specific protease 7 (Homo sapiens, UniProt Q9BQF6); type: functional;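 note: Luminescence-based dose-response confirmation of ultra-high-throughput screening hits, measuring inhibition of SENP7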
T3 sequence (Q9BQF6 whole entry): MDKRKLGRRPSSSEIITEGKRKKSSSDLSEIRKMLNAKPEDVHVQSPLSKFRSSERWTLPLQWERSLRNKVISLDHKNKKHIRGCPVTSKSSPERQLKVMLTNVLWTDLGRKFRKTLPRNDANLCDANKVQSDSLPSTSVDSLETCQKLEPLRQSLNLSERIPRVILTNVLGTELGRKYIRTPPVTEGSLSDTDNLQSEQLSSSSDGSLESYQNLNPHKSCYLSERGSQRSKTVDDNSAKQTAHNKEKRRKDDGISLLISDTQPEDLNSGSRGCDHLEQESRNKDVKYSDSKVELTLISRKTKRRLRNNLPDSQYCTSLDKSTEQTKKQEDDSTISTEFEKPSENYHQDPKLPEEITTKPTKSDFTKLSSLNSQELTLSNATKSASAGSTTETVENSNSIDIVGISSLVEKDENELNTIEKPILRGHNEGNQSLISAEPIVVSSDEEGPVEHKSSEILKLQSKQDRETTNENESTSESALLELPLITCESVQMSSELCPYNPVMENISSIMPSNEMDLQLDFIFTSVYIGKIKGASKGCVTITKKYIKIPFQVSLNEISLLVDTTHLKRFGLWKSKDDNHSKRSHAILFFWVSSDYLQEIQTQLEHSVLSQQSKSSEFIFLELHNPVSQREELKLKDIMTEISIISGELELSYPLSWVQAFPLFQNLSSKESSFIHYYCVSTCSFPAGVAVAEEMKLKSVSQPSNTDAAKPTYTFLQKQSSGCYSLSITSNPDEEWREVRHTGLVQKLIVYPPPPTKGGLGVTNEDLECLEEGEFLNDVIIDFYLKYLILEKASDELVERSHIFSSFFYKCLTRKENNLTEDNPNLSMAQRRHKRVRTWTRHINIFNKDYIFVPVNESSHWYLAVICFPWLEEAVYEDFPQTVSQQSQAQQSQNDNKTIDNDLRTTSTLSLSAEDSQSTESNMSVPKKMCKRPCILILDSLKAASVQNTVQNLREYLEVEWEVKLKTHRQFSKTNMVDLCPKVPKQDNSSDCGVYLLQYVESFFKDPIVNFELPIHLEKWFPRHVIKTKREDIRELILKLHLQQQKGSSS

[6] = molecular target: T4, Sentrin-specific protease 6 (Homo sapiens, UniProt Q9GZR1); type: functional;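 note: Luminescence-based dose-response confirmatory assay of SENP6 inhibition, following up an ultra-high-throughput screen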
T4 sequence (Q9GZR1 whole entry): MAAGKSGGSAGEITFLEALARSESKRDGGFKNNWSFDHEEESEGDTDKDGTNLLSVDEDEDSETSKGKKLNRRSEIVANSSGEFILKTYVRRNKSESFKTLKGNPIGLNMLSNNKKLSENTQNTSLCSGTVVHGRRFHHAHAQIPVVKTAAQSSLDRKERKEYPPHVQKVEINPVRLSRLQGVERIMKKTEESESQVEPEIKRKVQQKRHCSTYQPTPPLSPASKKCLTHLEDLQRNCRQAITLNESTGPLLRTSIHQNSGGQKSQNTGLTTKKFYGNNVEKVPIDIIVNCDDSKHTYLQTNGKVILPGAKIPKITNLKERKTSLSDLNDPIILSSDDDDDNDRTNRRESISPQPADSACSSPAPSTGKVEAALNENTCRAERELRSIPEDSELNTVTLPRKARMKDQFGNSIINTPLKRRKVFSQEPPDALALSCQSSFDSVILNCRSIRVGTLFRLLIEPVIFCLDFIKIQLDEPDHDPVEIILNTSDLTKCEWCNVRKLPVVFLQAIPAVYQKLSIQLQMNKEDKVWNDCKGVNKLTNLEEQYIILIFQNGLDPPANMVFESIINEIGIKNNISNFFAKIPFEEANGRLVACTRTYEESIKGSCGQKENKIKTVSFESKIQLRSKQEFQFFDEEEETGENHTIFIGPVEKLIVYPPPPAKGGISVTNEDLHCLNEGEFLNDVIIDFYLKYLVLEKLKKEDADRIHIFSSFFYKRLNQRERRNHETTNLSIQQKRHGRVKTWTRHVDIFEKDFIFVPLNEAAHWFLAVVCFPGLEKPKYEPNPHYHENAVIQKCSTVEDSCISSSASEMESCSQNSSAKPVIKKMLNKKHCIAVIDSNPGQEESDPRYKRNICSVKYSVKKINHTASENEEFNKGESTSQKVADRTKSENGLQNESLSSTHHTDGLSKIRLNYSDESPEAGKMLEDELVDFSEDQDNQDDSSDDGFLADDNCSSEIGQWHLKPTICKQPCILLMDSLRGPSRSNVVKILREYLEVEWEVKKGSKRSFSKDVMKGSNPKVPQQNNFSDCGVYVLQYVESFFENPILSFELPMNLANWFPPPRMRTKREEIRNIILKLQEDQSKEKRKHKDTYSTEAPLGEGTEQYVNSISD

[7] = molecular target: T5, Sentrin-specific protease 8 (Homo sapiens, UniProt Q96LD8); type: functional;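 note: luminescence read-out of SENP8 inhibition, dose-response confirmation following an ultra-high-throughput screen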
T5 sequence (Q96LD8 whole entry): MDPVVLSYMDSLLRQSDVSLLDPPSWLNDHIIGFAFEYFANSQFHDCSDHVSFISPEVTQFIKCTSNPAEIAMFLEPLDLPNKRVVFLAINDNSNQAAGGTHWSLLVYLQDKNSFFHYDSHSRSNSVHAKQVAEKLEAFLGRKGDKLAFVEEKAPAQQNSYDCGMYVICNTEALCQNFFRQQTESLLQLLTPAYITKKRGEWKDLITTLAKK

[8] = THP-1 cell cytotoxicity, dose response, cytotoxicity control for Vif-APOBEC3G degradation inhibitor project, THP-1 cells (AID 1117359); type: functional; details: Human immunodeficiency virus 1, THP-1
Aminopeptidase N = molecular target: T6, Aminopeptidase N (Plasmodium falciparum FcB1/Columbia, UniProt O96935); test: P. falciparum M1AAP inhibitors, biochemical, fluorogenic H-Leu-NHMec substrate, 1536-well (AID 1445); set-up: species or system Plasmodium falciparum 3D7, 3D7
T6 sequence (O96935 whole entry): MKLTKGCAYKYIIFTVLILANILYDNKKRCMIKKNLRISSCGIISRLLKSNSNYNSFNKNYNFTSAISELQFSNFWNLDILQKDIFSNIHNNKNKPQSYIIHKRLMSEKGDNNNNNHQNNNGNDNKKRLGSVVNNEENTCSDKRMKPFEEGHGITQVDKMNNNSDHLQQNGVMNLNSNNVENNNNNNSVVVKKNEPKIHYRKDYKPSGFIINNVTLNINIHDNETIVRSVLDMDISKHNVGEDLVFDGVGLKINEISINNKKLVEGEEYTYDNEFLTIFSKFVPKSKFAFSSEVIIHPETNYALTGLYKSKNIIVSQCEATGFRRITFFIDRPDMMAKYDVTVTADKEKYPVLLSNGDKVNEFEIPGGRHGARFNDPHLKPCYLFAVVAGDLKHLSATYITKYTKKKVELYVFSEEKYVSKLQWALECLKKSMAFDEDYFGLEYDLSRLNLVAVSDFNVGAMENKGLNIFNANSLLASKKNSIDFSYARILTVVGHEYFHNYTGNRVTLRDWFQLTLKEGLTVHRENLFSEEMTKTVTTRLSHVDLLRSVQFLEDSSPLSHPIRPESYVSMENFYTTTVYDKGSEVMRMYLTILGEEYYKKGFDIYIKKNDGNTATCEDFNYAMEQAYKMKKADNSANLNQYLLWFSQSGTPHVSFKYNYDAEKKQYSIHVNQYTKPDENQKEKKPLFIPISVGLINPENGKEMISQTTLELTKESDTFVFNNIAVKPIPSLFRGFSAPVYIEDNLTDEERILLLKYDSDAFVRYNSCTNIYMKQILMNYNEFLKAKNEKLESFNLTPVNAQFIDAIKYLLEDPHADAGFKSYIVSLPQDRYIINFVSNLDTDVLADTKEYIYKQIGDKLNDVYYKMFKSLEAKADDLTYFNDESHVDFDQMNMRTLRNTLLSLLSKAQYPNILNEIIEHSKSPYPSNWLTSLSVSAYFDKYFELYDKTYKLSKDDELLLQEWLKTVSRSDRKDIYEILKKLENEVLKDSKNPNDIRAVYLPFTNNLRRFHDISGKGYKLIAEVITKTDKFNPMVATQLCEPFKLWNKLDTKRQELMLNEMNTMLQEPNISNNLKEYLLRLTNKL

Chain of Protein Wnt-3a (P27467 whole entry): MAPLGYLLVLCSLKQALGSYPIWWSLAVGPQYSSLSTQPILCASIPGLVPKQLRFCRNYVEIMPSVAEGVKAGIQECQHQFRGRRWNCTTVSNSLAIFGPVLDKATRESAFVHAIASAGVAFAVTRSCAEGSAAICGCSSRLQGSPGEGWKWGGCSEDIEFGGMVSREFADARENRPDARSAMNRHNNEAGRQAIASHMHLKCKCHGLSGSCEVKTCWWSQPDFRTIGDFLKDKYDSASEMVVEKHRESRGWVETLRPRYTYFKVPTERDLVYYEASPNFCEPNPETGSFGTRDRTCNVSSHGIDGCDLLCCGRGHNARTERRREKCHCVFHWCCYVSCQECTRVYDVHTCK
Chain of Mu-type opioid receptor (P35372 whole entry): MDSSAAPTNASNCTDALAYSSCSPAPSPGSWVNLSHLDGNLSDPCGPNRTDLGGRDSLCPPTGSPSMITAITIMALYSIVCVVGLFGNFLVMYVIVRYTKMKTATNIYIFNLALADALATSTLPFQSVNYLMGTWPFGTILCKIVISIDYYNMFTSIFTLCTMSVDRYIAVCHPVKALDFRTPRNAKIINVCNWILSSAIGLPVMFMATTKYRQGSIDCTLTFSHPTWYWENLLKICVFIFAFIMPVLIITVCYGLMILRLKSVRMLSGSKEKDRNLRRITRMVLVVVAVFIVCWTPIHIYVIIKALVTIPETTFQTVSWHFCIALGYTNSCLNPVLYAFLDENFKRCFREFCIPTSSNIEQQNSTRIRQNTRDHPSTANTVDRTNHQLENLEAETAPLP
Chain of 5-hydroxytryptamine receptor 2A (P35363 whole entry): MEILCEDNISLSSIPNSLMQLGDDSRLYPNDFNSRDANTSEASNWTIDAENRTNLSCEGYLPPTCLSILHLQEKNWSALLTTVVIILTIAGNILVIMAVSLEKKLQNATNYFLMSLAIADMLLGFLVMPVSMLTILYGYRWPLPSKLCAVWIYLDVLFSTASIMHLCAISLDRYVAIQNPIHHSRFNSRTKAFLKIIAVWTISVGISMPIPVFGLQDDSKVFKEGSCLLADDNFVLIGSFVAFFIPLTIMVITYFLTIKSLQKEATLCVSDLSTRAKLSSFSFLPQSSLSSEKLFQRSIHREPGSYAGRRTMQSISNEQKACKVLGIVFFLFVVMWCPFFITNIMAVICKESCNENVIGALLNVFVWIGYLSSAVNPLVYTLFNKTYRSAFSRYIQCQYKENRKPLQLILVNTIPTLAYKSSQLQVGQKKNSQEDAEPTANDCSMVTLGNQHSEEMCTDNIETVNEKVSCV
Chain of Estrogen receptor beta (Q92731 whole entry): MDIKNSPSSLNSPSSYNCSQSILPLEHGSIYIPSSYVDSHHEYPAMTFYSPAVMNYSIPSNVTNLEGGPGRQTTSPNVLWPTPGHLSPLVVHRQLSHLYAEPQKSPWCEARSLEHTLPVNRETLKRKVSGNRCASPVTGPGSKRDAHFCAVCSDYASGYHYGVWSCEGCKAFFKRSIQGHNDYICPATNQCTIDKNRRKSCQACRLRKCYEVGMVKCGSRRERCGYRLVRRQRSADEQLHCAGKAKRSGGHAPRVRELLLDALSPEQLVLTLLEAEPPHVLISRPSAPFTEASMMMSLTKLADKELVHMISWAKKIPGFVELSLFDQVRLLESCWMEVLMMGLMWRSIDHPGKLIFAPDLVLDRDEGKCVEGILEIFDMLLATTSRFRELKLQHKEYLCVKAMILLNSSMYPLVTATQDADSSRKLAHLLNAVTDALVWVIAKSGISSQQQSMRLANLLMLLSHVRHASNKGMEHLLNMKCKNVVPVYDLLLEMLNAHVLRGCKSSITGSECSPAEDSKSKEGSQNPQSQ

- IC50 (Estrogen receptor beta): > 50 µM (not active)
Structure (SMILES): CCOC(=O)Cc1nn(C)c(=O)c2ccccc12

- IC50 (Protein Wnt-3a): 5.16 µM (active)
Structure (SMILES): c1ccc(-c2cn3c([n+]2-c2ccccc2)CCC3)cc1

- IC50 (Protein Wnt-3a): 0.973 µM (active)
Structure (SMILES): CC(C)(C)c1ccc(-n2ncc3c2CCCC3NC(=O)CCN2CCCC2=O)cc1 (configuration not stated)

- IC50 (Estrogen receptor beta): > 50 µM (not active)
Structure (SMILES): Cc1cccc(-n2c(SCc3cc(=O)n4c(C)cccc4n3)nc3nncc-3c2O)c1

- IC50 (Aminopeptidase N): 16.6 µM (active)
- IC50 (Caspase-3): 41.1 µM (active)
- IC50 [5]: 15.8 µM (active)
- IC50 [6]: 22.5 µM (active)
Structure (SMILES): O=C(O)COc1ccccc1/C=N/NC(=O)CSc1nnc(SCc2ccc(Cl)cc2)s1
- IC50 [7]: > 100 µM (inactive)

- IC50 (Estrogen receptor beta): > 50 µM (not active)
Structure (SMILES): O=C(CCc1ccccc1)Nc1ccc(N2CCOCC2)cc1

- IC50 (Protein Wnt-3a): 10.5 µM (active)
Structure (SMILES): CC(C)n1c(-c2ccco2)cs/c1=N/c1cccnc1

The remaining lines, values behind:

Structure (SMILES): O=[N+]([O-])c1cccnc1N1CCN(Cc2ccc3c(c2)OCO3)CC1
- EC50 (Mu-type opioid receptor): 92.5 µM (inactive)
- EC50 [1]: 0.00977 µM (active)

Structure (SMILES): CC(=O)N1CCCCN2[C@H](CO)[C@H](c3ccc(-c4cccc(C)c4)cc3)[C@@H]2C1
- AC50 [2]: > 52 µM (inactive)
- AC50 [3]: 19.2 µM (active)
- AC50 [4]: 9.64 µM (active)

Structure (SMILES): CCOC(=O)N1CCN(Cc2ccc3c(c2)OCO3)CC1
- EC50 (Mu-type opioid receptor): 92.4 µM (inactive)
- EC50 [1]: 1.19 µM (active)

Structure (SMILES): Cc1ccc(CN2CCN(c3ncccn3)CC2)o1
- EC50 (Mu-type opioid receptor): 92.4 µM (inactive)
- EC50 [1]: 4 µM (active)

Structure (SMILES): Cc1ccc(C)c(-c2nc3cc(N)ccc3o2)c1
- IC50 (Caspase-3): 27.5 µM (active)
- IC50 (Coagulation factor XII): > 50 µM (inactive)
- IC50 [5]: 9.65 µM (active)
- IC50 [6]: 25.2 µM (active)
- IC50 [7]: 31.1 µM (active)

Structure (SMILES): CC(C)(C)c1ccc(NC(=O)N2CCN(c3ccc([N+](=O)[O-])cn3)CC2)cc1
- CC50 [8]: 37.5 µM (active)

Structure (SMILES): COc1ccc2c(c1)c(C)cc[n+]2Cc1ccccc1
- IC50 (Protein Wnt-3a): 2.07 µM (active)
